Results as given in patent US20240246980A1, “MODULATORS OF MAS-RELATED G-PROTEIN RECEPTOR D AND RELATED PRODUCTS AND METHODS” (Escient Pharmaceuticals, Inc., priority 2022, published 2024).

Biological target: human MRGPRD (Homo sapiens, UniProt Q8TDS7)
Experiment: MRGPRD antagonist activity, IP-One HTRF assay in CHO cells stably expressing human MRGPRD (versus 100 μM β-Alanine agonist)
Assay type: cell-based
Description: Chinese Hamster Ovary (CHO) cells stably expressing human MRGPRD (Eurofins, San Diego CA) were plated in a 384-well plate at 20,000 cells per well in 12 μL of Optimem (Fisher Scientific 11-058-021). Plates were kept in the incubator at 37° C. overnight. Antagonists were solubilized at a concentration of 10 mM in DMSO, and the agonists were solubilized to stock concentrations of either 50 mM in H2O (β-Alanine) or 10 mM in DMSO (all others) and then diluted in assay buffer (final concentrations of 5.7 mM Tris-HCl, 43 mM NaCl, 50 mM LiCl, pH=8). The concentration of DMSO was normalized across the plate. Antagonists were added to the plate using a Tecan D300 Digital Dispenser at nanoliter/picoliter volumes and 2 μL of agonists in assay buffer were added to each well for a final assay volume of 14 μL. Plates were covered and incubated for 1 h at 37° C. and then for 1 h at room temperature. IP-1 standards and HTRF detection reagents were added according to an IP-One-Gq Kit purchased from Cisbio (part number 62IPAPEJ) and incubated in the dark for 1 h at room temperature. Assay plates were read on either a Molecular Devices SpectraMax iD5 plate reader or a BMG ClarioStar plate reader. The HTRF ratio was calculated form the raw data and graphed using GraphPad Prism to calculate IC50 values. Data are expressed as average IC50 values and average percent antagonism calculated as a percent of the maximum efficacy response. For these studies, the variability of the data was assessed by determining the standard error of mean (SEM).
The activity ranges are denoted as follows: “+++++” denotes antagonist activity <100 nM; “++++” denotes antagonist activity between 100 and 500 nM; “+++” denotes activity between 500 and 1000 nM; “++” denotes activity between 1000 and 3000 nM; and “+” denotes activity >3000 nM.

human MRGPRD, sequence (Q8TDS7 whole entry): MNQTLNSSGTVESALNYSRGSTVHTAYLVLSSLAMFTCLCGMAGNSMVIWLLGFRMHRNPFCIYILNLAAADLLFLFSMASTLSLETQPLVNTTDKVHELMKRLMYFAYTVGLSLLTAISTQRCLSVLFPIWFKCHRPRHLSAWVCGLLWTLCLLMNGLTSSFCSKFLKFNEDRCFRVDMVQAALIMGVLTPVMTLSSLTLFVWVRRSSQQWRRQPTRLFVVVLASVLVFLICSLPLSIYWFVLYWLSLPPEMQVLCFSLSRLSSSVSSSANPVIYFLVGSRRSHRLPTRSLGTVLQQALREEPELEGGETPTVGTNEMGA

Compound | IC50 [nM]
COc1cccc(-c2nc([C@@H]3CCCN(C(=O)NC4CCS(=O)(=O)CC4)C3)n3ccccc23)c1 [Compound 5-48] | 100 to 500
CN(C)c1ccc(NC(=O)N2CCC[C@@H](c3nc(-c4ccc5ccccc5c4)c4ccccn34)C2)cc1 [Compound 10-34] | 1000 to 3000
CNC(=O)N1CCC[C@@H]1c1nc(-c2cccc(OC)c2)c2ccccn12 [Compound 21-4] | > 3000
CN(C)c1ccc(NC(=O)N2CCC[C@@H](c3nc(-c4ccc(-c5ccccc5)cc4)c4ccccn34)C2)cc1 [Compound 10-33] | > 3000
CC(=O)c1cccc(-c2nc([C@@H]3CCCN(C(=O)Nc4ccc(N(C)C)cc4)C3)n3ccccc23)c1 [Compound 10-7] | < 100
COc1cccc(-c2nc([C@@H]3CCCN(C(=O)Nc4ccc5c(c4)CN(C)C5)C3)n3ccccc23)c1 [Compound 5-53] | < 100
O=C(Nc1ccccc1F)N1CCCC(c2nc(-c3ccncc3)c3ccccn23)C1 (stereo not drawn) [Compound 11-10] | 1000 to 3000
COc1cccc(-c2nc([C@@H]3CCCN(C(=O)Nc4cccc5c4OCO5)C3)n3ccccc23)c1 [Compound 5-35] | < 100
COc1cccc(-c2nc([C@@H]3CCCN(C(=O)Nc4ccc5ncsc5c4)C3)n3ccccc23)c1 [Compound 5-65] | < 100
COc1cccc(-c2nc(C3CCCN(C(=O)Nc4ccccc4F)C3)n3cccc(C)c23)c1 (stereo not drawn) [Compound 17-1, N-(2-fluorophenyl)-3-(1-(3-methoxyphenyl)-8-methylimidazo[1,5-a]pyridin-3-yl)piperidine-1-carboxamide] | 100 to 500
CN(C)c1ccc(NC(=O)N2CCC[C@@H](c3nc(-c4ccc5c(c4)OCO5)c4ccccn34)C2)cc1 [Compound 10-27] | 500 to 1000
CN(C)c1ccc(NC(=O)N2CCC[C@@H](c3nc(-c4cccc(OC(F)(F)F)c4)c4ccccn34)C2)cc1 [Compound 10-24] | 500 to 1000
COc1cccc(-c2nc(C3CCCN(C(=O)Nc4ccccc4F)C3)n3ccc(OC)cc23)c1 (stereo not drawn) [Compound 19-2] | > 3000
CN(C)c1ccc(NC(=O)N2CCC[C@H](c3nc(-c4ccccc4)c4ccccn34)C2)cc1 [Compound 10-15] | 1000 to 3000
CN(C)c1ccc(NC(=O)N2CCC[C@@H](c3nc(-c4ccc(C(F)(F)F)cc4)c4ccccn34)C2)cc1 [Compound 10-30] | 1000 to 3000
CN(C)c1ccc(NC(=O)N2CCC[C@@H](c3nc(-c4cnn(-c5ccccc5)c4)c4ccccn34)C2)cc1 [Compound 10-63] | 1000 to 3000
CN(C)c1ccc(NC(=O)N2CCC[C@@H](c3nc(-c4ccc(OC(F)(F)F)cc4)c4ccccn34)C2)cc1 [Compound 10-14] | 1000 to 3000
COc1cccc(NC(=O)N2CCCC(c3nc(-c4cccc(OC)c4)c4ccccn34)C2)c1 (stereo not drawn) [Compound 3-16] | 100 to 500
COc1cccc(-c2nc([C@@H]3CCCN(C(=O)Nc4noc(C)c4C)C3)n3ccccc23)c1 [Compound 1-33] | < 100
COc1cccc(-c2nc(C3CCCN(C(=O)c4cc(OC)c(OC)c(OC)c4)C3)n3c(OC)cccc23)c1 (stereo not drawn) [Compound 14-2] | > 3000

Compound | IC50 [nM]
COc1cccc(-c2nc([C@@H]3CCCN(C(=O)c4cccc(F)c4)C3)n3ccccc23)c1 [Compound 12-14] | 500 to 1000
CC(=O)c1ccc(-c2nc([C@@H]3CCCN(C(=O)Nc4ccc(N(C)C)cc4)C3)n3ccccc23)cc1 [Compound 10-36] | 500 to 1000
COc1cccc(-c2nc(C3CCCN(C(=O)Nc4cccc(Cl)c4)C3)n3ccccc23)c1 (stereo not drawn) [Compound 3-17] | 500 to 1000
Cc1csc(-c2nc([C@@H]3CCCN(C(=O)Nc4ccc(N(C)C)cc4)C3)n3ccccc23)c1 [Compound 10-58] | 500 to 1000
Cc1ccccc1-c1nc(C2CCCN(C(=O)Nc3ccccc3F)C2)n2ccccc12 (stereo not drawn) [Compound 11-1] | 1000 to 3000
CCOc1cccc(NC(=O)N2CCC[C@@H](c3nc(-c4cccc(OC)c4)c4ccccn34)C2)c1 [Compound 1-24] | < 100
COc1ccccc1-c1nc([C@H]2CCCN(C(=O)Nc3ccc(N(C)C)cc3)C2)n2ccccc12 [Compound 10-31] | > 3000
COc1cccc(-c2nc([C@@H]3CCCN(C(=O)NC4(c5ccccc5)CC4)C3)n3ccccc23)c1 [Compound 5-55] | < 100
CCc1cccc(NC(=O)N2CCCC(c3nc(-c4cccc(OC)c4)c4ccccn34)C2)c1 (stereo not drawn) [Compound 3-18] | > 3000
CN(C)c1ccc(NC(=O)N2CCC[C@@H](c3nc(-c4ccc(C#N)cc4)c4ccccn34)C2)cc1 [Compound 10-23] | 500 to 1000
COc1cccc(NC(=O)N2CCC[C@@H](c3nc(-c4cccc(OC)c4)c4ccccn34)C2)c1 [Compound 1-9] | < 100
CN(C)c1ccc(NC(=O)N2CCC[C@@H](c3nc(-c4ccc5c(c4)CCC5)c4ccccn34)C2)cc1 [Compound 10-26] | 500 to 1000
CCc1ccc(NC(=O)N2CCC[C@@H](c3nc(-c4cccc(OC)c4)c4ccccn34)C2)cc1 [Compound 1-12] | < 100
COc1cccc(-c2nc(C3CCCN(C(=O)Cc4ccccc4F)C3)n3ccccc23)c1 (stereo not drawn) [Compound 12-1, 2-(2-fluorophenyl)-1-(3-(1-(3-methoxyphenyl)imidazo[1,5-a]pyridin-3-yl)piperidin-1-yl)ethan-1-one] | 100 to 500
COc1cccc(-c2nc([C@@H]3CCCN(C(=O)Nc4ccc(-n5cccn5)cc4)C3)n3ccccc23)c1 [Compound 5-16] | < 100
COc1cccc(-c2nc(C3CCCN(C(=O)Nc4ccccc4F)C3)n3c(OC)cccc23)c1 (stereo not drawn) [Compound 13-1, N-(2-fluorophenyl)-3-(5-methoxy-1-(3-methoxyphenyl)imidazo[1,5-a]pyridin-3-yl)piperidine-1-carboxamide] | 100 to 500
CN(C)c1ccc(NC(=O)N2CCC[C@@H](c3nc(-c4cn(S(=O)(=O)c5ccccc5)c5ccccc45)c4ccccn34)C2)cc1 [Compound 10-54] | 500 to 1000
COc1ccccc1-c1nc([C@@H]2CCCN(C(=O)Nc3ccc(N(C)C)cc3)C2)n2ccccc12 [Compound 10-37] | 500 to 1000
CCc1ccc(NC(=O)N2CCCC(c3nc(-c4cccc(OC)c4)c4ccccn34)C2)cc1 (stereo not drawn) [Compound 3-22] | 100 to 500
O=C(Nc1ccccc1F)N1CCCC(c2nc(-c3cccnc3)c3ccccn23)C1 (stereo not drawn) [Compound 11-6] | > 3000

Compound | IC50 [nM]
COc1cccc(-c2nc([C@@H]3CCCN(C(=O)Nc4ccccc4)C3)n3ccccc23)c1 [Compound 3-27] | < 100
COc1cccc(-c2nc([C@@H]3CCCN(C(=O)Nc4cc(C#N)on4)C3)n3ccccc23)c1 [Compound 5-69] | < 100
COc1cccc(-c2nc(C3CCCN(S(=O)(=O)c4ccccc4F)C3)n3ccccc23)c1 (stereo not drawn) [Compound 16-1] | 500 to 1000
CCc1ccccc1NC(=O)N1CCCC(c2nc(-c3cccc(OC)c3)c3ccccn23)C1 (stereo not drawn) [Compound 3-15] | > 3000
COc1cccc(-c2nc([C@@H]3CCCN(C(=O)Nc4onc(C)c4C)C3)n3ccccc23)c1 [Compound 5-50] | < 100
COc1cccc(-c2nc(C3CCCN(C(=O)c4ccc(F)cc4C)C3)n3ccccc23)c1 (stereo not drawn) [Compound 12-10] | 1000 to 3000
COc1cccc(-c2nc([C@@H]3CCCN(C(=O)N[C@H]4CC[C@@H](O)CC4)C3)n3ccccc23)c1 [Compound 5-56] | 100 to 500
COc1cccc(-c2nc([C@@H]3CCCN(C(=O)Nc4ccc(CN(C)C)cc4)C3)n3ccccc23)c1 [Compound 1-26] | 100 to 500
CNC(=O)N1CCC[C@H]1c1nc(-c2cccc(OC)c2)c2ccccn12 [Compound 21-3] | > 3000
CCc1ccc(-c2nc([C@@H]3CCCN(C(=O)Nc4ccc(N(C)C)cc4)C3)n3ccccc23)cc1 [Compound 10-29] | 500 to 1000
COc1cccc(-c2nc([C@@H]3CCCN(C(=O)Nc4cccc(C(=O)N(C)C)c4)C3)n3ccccc23)c1 [Compound 5-18] | < 100
COc1cccc(-c2nc([C@@H]3CCCN(C(=O)Nc4cnc(N(C)C)nc4)C3)n3ccccc23)c1 [Compound 5-72] | < 100
COc1cccc(-c2nc(C3CCCN(C(=O)Cc4ccc(F)cc4)C3)n3ccccc23)c1 (stereo not drawn) [Compound 12-2] | 500 to 1000
COc1cccc(-c2nc(C3CCCN(C(=O)Nc4cccc(N(C)C)c4)C3)n3ccccc23)c1 (stereo not drawn) [Compound 3-24] | 100 to 500
COc1cccc(-c2nc([C@@H]3CCCN(C(=O)Nc4ccon4)C3)n3ccccc23)c1 [Compound 1-30] | 100 to 500
COc1cccc(-c2nc(C3CCCN(C(=O)NC(C)(C)C)C3)n3ccccc23)c1 (stereo not drawn) [Compound 3-10] | 500 to 1000
COc1cccc(-c2nc(C3CCCN(C(=O)c4cccc(F)c4)C3)n3ccccc23)c1 (stereo not drawn) [Compound 12-6] | 100 to 500
CN(C)c1ccc(NC(=O)N2CCC[C@@H](c3nc(-c4cccc(F)c4)c4ccccn34)C2)cc1 [Compound 10-42] | 500 to 1000
COc1cccc(-c2nc(C3CCCN(C(=O)c4ccc(F)c(F)c4)C3)n3ccccc23)c1 (stereo not drawn) [Compound 12-12] | 500 to 1000
COc1cccc(-c2nc([C@@H]3CCCN(C(=O)Nc4cccc5c4CCC5)C3)n3ccccc23)c1 [Compound 5-26] | 100 to 500
